Several values for one entry are separate records, joined by “and”; a condition that tells them apart may be missing. Equal values may be shown once.

The first assay deals with T1, OXE receptor (Homo sapiens, UniProt Q8TDS5).
T1 construct: Human granulocytes (≥95% neutrophils) are prepared from whole blood; endogenous in cells; host or cells: human granulocytes (≥95% neutrophils) from whole blood
T1 sequence (Q8TDS5 whole entry): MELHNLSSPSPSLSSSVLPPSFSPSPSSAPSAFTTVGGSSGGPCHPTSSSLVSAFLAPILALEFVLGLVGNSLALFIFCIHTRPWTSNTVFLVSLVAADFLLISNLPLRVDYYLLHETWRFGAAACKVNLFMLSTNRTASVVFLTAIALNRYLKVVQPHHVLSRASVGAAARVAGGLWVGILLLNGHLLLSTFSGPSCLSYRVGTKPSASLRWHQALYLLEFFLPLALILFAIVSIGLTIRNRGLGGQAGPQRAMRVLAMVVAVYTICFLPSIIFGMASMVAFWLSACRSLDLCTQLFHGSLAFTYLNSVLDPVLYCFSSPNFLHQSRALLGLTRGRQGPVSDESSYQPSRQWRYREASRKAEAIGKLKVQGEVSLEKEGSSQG
Nature of the assay: Calcium mobilization in human granulocytes (inhibition of 5-oxo-ETE-induced calcium mobilization). The assay is classed as cell-based. To be noted: 5-oxo-ETE-induced calcium mobilization. On the procedure:
Evaluation of Antagonist Activity: Calcium Mobilization in Human Granulocytes
Human granulocytes (≥95% neutrophils) are prepared from whole blood using Dextran 500 to remove red blood cells, followed by centrifugation over Ficoll-Paque to remove mononuclear cells and hypotonic lysis of any remaining red blood cells. After centrifugation the granulocytes are suspended in Ca^++/Mg^++-free phosphate-buffered saline (PBS^−). Granulocytes (10^7 cells/ml) are incubated with the acetoxymethyl ester of indo-1 (1 μM) for 30 min, followed by washing twice with PBS^− and resuspension in the same medium to obtain a final cell concentration of 3.22×10^6 cells/ml. Five minutes prior to commencing data acquisition, Ca^++ and Mg^++ are added to give final concentrations of 1.8 and 1 mM, respectively. Calcium measurements are performed at 37° C. using a spectrofluorometer equipped with a temperature-controlled cuvette holder and a magnetic stirrer. The excitation and emission wavelengths are 331 nm and 410 nm, respectively. Following stabilization of the baseline, fluorescence is measured for 1 min, prior to the addition of either vehicle or various concentrations of a potential 5-oxo-ETE antagonist. Two min later, 5-oxo-ETE (10 nM) is added, followed 1 min later by digitonin (final concentration 0.1%). Data acquisition is terminated after a further 0.5 min. Fmax is determined from fluorescence measurements after the addition of digitonin, whereas Fmin is determined after determination of autofluorescence as described in the literature. A dissociation constant of 250 nM for the indo-1/Ca^++ complex is used to calculate [Ca^++]i. The % inhibition of 5-oxo-ETE-induced calcium mobilization by the antagonist is calculated as follows: Inhibition (%)=(1−(Caant/Ca^++veh))×100 where Caant is the increase in cytosolic calcium levels induced by 5-oxo-ETE (10 nM) following the addition of a potential antagonist, whereas Caveh is the response induced by 5-oxo-ETE following addition of vehicle alone.
On the technique in general: A change in cytosolic calcium serves as a functional read-out for many receptors and channels.
On to `COc1ccccc1CCCCCC(O)c1c(C(=O)C[C@H](C)CC(=O)O)c2cc(Cl)ccc2n1C` (stereo partly shown) [Compound 49M], for which the “antagonist activity / potency in words” value is “antagonists and 5-oxo-ETE-induced calcium mobilization inhibitors”. The same measure, in the same setting: the entry for `C[C@H](CC(=O)O)CC(=O)c1c(C(O)CCCCCc2ccc(F)cc2)n(C)c2ccc(Cl)cc12` (stereo partly shown) [Compound 54M] is “antagonists and 5-oxo-ETE-induced calcium mobilization inhibitors”.

Staying with this assay, now noted: 5-oxo-ETE-induced calcium mobilization; read-out: potency (IC50) in the picomolar range.
Regarding `CC(CC(=O)O)CC(=O)c1c(CCCCCCc2cccc(Cl)c2)n(C)c2ccc(Cl)cc12` (racemic) [Compound 20, 5-(5-chloro-2-(6-(3-chlorophenyl)hexyl)-1-methyl-1H-indol-3-yl)-3-methyl-5-oxopentanoic acid], the IC50 (usually the concentration that gives 50% inhibition) is about 0.033 nM. Same read-out and setting: in the case of `CC(CC(=O)O)CC(=O)c1c(CCCCCCc2cccc(F)c2)n(C)c2ccc(Cl)cc12` (racemic) [Compound 21, 5-(5-chloro-2-(6-(3-fluorophenyl)hexyl)-1-methyl-1H-indol-3-yl)-3-methyl-5-oxopentanoic acid] it was about 0.072 nM; in that of `COc1cccc(CCCCCCc2c(C(=O)CC(C)CC(=O)O)c3cc(Cl)ccc3n2C)c1` (racemic) [Compound 22, 5-(5-chloro-2-(6-(3-methoxyphenyl)hexyl)-1-methyl-1H-indol-3-yl)-3-methyl-5-oxopentanoic acid], about 0.086 nM.

The same assay, now with this note: inhibition of calcium mobilization induced by 5-oxo-ETE (10 nM) in human granulocytes; bracketed figure in cell = n; read-out: IC50.
`CC(CC(=O)O)CC(=O)c1c(CCCCc2ccccc2)n(C)c2ccc(Cl)cc12` (racemic) [Compound 13, methyl 5-(5-chloro-1-methyl-2-(4-phenylbutyl)-1H-indol-3-yl)-3-methyl-5-oxopentanoic acid]: the IC50 turned out to be 38 ± 8 nM. Consider `CC(CC(=O)O)CC(=O)c1c(CCCCCCc2cccc(Cl)c2)n(C)c2ccc(Cl)cc12` (racemic) [Compound 20, 5-(5-chloro-2-(6-(3-chlorophenyl)hexyl)-1-methyl-1H-indol-3-yl)-3-methyl-5-oxopentanoic acid], for which the IC50 was determined as 0.033 ± 0.003 nM. With `CC(CC(=O)O)CC(=O)c1c(CCCCCCc2cccc(F)c2)n(C)c2ccc(Cl)cc12` (racemic) [Compound 21, 5-(5-chloro-2-(6-(3-fluorophenyl)hexyl)-1-methyl-1H-indol-3-yl)-3-methyl-5-oxopentanoic acid], the half-maximal inhibitory concentration (IC50) is 0.072 ± 0.007 nM. Same read-out and setting: the figure for `COc1cccc(CCCCCCc2c(C(=O)CC(C)CC(=O)O)c3cc(Cl)ccc3n2C)c1` (racemic) [Compound 22, 5-(5-chloro-2-(6-(3-methoxyphenyl)hexyl)-1-methyl-1H-indol-3-yl)-3-methyl-5-oxopentanoic acid] is 0.086 ± 0.017 nM. On the same count and under the same terms, the figure for `C[C@H](CC(=O)O)CC(=O)c1c(CCCCCCc2ccccc2F)n(C)c2ccc(Cl)cc12` (single isomer, unassigned) [Compound 48] is 0.27 ± 0.06 nM; for `C[C@H](CC(=O)O)CC(=O)c1c(CCCCCCc2cccc(F)c2)n(C)c2ccc(Cl)cc12` (single isomer, unassigned) [Compound 51] it is 0.037 ± 0.005 nM. On the same count and under the same terms, the figure for `COc1cccc(CCCCCCc2c(C(=O)C[C@H](C)CC(=O)O)c3cc(Cl)ccc3n2C)c1` (single isomer, unassigned) [Compound 52] is 0.051 ± 0.007 nM. As for `C[C@@H](CC(=O)O)CC(=O)c1c(CCCCCCc2ccccc2Cl)n(C)c2ccc(Cl)cc12` (single isomer, unassigned) [Compound 62], the concentration for half-maximal inhibition (IC50) amounted to 81 ± 34 nM. Turning to `C[C@@H](CC(=O)O)CC(=O)c1c(CCCCCCc2ccccc2F)n(C)c2ccc(Cl)cc12` (single isomer, unassigned) [Compound 63], the IC50 is 2.9 ± 0.1 nM. The same measure, in the same setting: the figure for `COc1ccccc1CCCCCCc1c(C(=O)C[C@@H](C)CC(=O)O)c2cc(Cl)ccc2n1C` (single isomer, unassigned) [Compound 64] is 54 ± 23 nM; for `C[C@@H](CC(=O)O)CC(=O)c1c(CCCCCCc2cccc(Cl)c2)n(C)c2ccc(Cl)cc12` (single isomer, unassigned) [Compound 65] it is 0.64 ± 0.1 nM. The same measure, in the same setting: the figure for `C[C@@H](CC(=O)O)CC(=O)c1c(CCCCCCc2cccc(F)c2)n(C)c2ccc(Cl)cc12` (single isomer, unassigned) [Compound 66] is 1.8 ± 0.3 nM; for `COc1cccc(CCCCCCc2c(C(=O)C[C@@H](C)CC(=O)O)c3cc(Cl)ccc3n2C)c1` (single isomer, unassigned) [Compound 67] it is 50 ± 13 nM; for `C[C@@H](CC(=O)O)CC(=O)c1c(CCCCCCc2ccc(F)cc2)n(C)c2ccc(Cl)cc12` (single isomer, unassigned) [Compound 69] it is 4.45 ± 1.05 nM. Turning to `CC(CC(=O)O)CC(=O)c1c(CCCc2ccccc2)n(C)c2ccc(Cl)cc12` (stereo not shown) [Compound 12, 5-(5-chloro-1-methyl-2-(3-phenylpropyl)-1H-indol-3-yl)-3-methyl-5-oxopentanoic acid, reference compound], the IC50 was determined as 223 ± 18 nM. Consider `CC(CC(=O)O)CC(=O)c1c(CCCCCc2ccccc2)n(C)c2ccc(Cl)cc12` (stereo not shown) [Compound 14, 5-(5-chloro-1-methyl-2-(5-phenylpentyl)-1H-indol-3-yl)-3-methyl-5-oxopentanoic acid], for which the IC50 turned out to be 11 ± 1 nM. The same measure, in the same setting: in the case of `CC(CC(=O)O)CC(=O)c1c(CCCCCCc2ccccc2Cl)n(C)c2ccc(Cl)cc12` (stereo not shown) [Compound 17, 5-(5-chloro-2-(6-(2-chlorophenyl)hexyl)-1-methyl-1H-indol-3-yl)-3-methyl-5-oxopentanoic acid] it was 0.44 ± 0.13 nM; in that of `CC(CC(=O)O)CC(=O)c1c(CCCCCCc2ccccc2F)n(C)c2ccc(Cl)cc12` (stereo not shown) [Compound 18, 5-(5-chloro-2-(6-(2-fluorophenyl)hexyl)-1-methyl-1H-indol-3-yl)-3-methyl-5-oxopentanoic acid], 0.41 ± 0.07 nM.

As for `COc1ccccc1CCCCCCc1c(C(=O)CC(C)CC(=O)O)c2cc(Cl)ccc2n1C` (stereo not shown) [Compound 19, 5-(5-chloro-2-(6-(2-methoxyphenyl)hexyl)-1-methyl-1H-indol-3-yl)-3-methyl-5-oxopentanoic acid], the IC50 worked out at 0.18 ± 0.05 nM. As to `CC(CC(=O)O)CC(=O)c1c(CCCCCCc2ccc(Cl)cc2)n(C)c2ccc(Cl)cc12` (stereo not shown) [Compound 23, 5-(5-chloro-2-(6-(4-chlorophenyl)hexyl)-1-methyl-1H-indol-3-yl)-3-methyl-5-oxopentanoic acid], the IC50 amounted to 0.63 ± 0.22 nM. As to `CC(CC(=O)O)CC(=O)c1c(CCCCCCc2ccc(F)cc2)n(C)c2ccc(Cl)cc12` (stereo not shown) [Compound 24, 5-(5-chloro-2-(6-(4-fluorophenyl)hexyl)-1-methyl-1H-indol-3-yl)-3-methyl-5-oxopentanoic acid], the IC50 turned out to be 0.8 ± 0.24 nM.

For `COc1ccc(CCCCCCc2c(C(=O)CC(C)CC(=O)O)c3cc(Cl)ccc3n2C)cc1` (stereo not shown) [Compound 25, 5-(5-chloro-2-(6-(4-methoxyphenyl)hexyl)-1-methyl-1H-indol-3-yl)-3-methyl-5-oxopentanoic acid], the IC50 is 0.63 ± 0.08 nM.

Consider `CC(CC(=O)O)CC(=O)c1c(CCCCCCc2cccc(O)c2)n(C)c2ccc(Cl)cc12` (stereo not shown) [Compound 38, 5-(5-chloro-2-(6-(3-hydroxyphenyl)hexyl)-1-methyl-1H-indol-3-yl)-3-methyl-5-oxopentanoic acid], for which the IC50 was 1.9 ± 0.3 nM. Same read-out and setting: the figure for `C[C@H](CC(=O)O)CC(=O)c1c(CCCCCCc2ccccc2Cl)n(C)c2ccc(Cl)cc12` [Compound 47, (S)-5-(5-chloro-2-(6-(2-chlorophenyl)hexyl)-1-methyl-1H-indol-3-yl)-3-methyl-5-oxopentanoic acid] is 0.55 ± 0.19 nM; for `COc1ccccc1CCCCCCc1c(C(=O)C[C@H](C)CC(=O)O)c2cc(Cl)ccc2n1C` [Compound 49, (S)-5-(5-chloro-2-(6-(2-methoxyphenyl)hexyl)-1-methyl-1H-indol-3-yl)-3-methyl-5-oxopentanoic acid] it is 0.1 ± 0.02 nM.

Turning to `COc1ccccc1CCCCCC(O)c1c(C(=O)C[C@H](C)CC(=O)O)c2cc(Cl)ccc2n1C` (stereo partly shown) [Compound 49M], the IC50 is 0.58 ± 0.21 nM. With `C[C@H](CC(=O)O)CC(=O)c1c(C(O)CCCCCc2cccc(Cl)c2)n(C)c2ccc(Cl)cc12` (stereo partly shown) [Compound 50M], the IC50 is 0.08 ± 0.02 nM. On the same count and under the same terms, the figure for `C[C@H](CC(=O)O)CC(=O)c1c(CCCCCCc2ccc(Cl)cc2)n(C)c2ccc(Cl)cc12` [Compound 53, (S)-5-(5-chloro-2-(6-(4-chlorophenyl)hexyl)-1-methyl-1H-indol-3-yl)-3-methyl-5-oxopentanoic acid] is 0.47 ± 0.16 nM; for `C[C@H](CC(=O)O)CC(=O)c1c(CCCCCCc2ccc(F)cc2)n(C)c2ccc(Cl)cc12` [Compound 54, (S)-5-(5-chloro-2-(6-(4-fluorophenyl)hexyl)-1-methyl-1H-indol-3-yl)-3-methyl-5-oxopentanoic acid] it is 0.39 ± 0.09 nM. Same read-out and setting: in the case of `C[C@H](CC(=O)O)CC(=O)c1c(C(O)CCCCCc2ccc(F)cc2)n(C)c2ccc(Cl)cc12` (stereo partly shown) [Compound 54M] it was 1.4 ± 0.4 nM; in that of `CC(CC(=O)O)CC(=O)c1c(COCCCc2ccccc2)n(C)c2ccc(Cl)cc12` (stereo not shown) [Compound 83, 5-(5-chloro-1-methyl-2-((3-phenylpropoxy)methyl)-1H-indol-3-yl)-3-methyl-5-oxopentanoic acid], 0.7 nM.

Regarding `CC(CC(=O)O)CC(=O)c1c(/C=C/CCCCc2ccccc2)n(C)c2ccc(Cl)cc12` (stereo not shown) [Compound 85, (E)-5-(5-chloro-1-methyl-2-(6-phenylhex-1-en-1-yl)-1H-indol-3-yl)-3-methyl-5-oxopentanoic acid], the half-maximal inhibitory concentration (IC50) came out at 1.93 ± 0.6 nM.

On to `CC(CC(=O)O)CC(=O)c1c(CCCCC=Cc2ccccc2)n(C)c2ccc(Cl)cc12` (stereo not shown) [Compound 94, 5-[5-Chloro-1-methyl-2-(6-phenyl-hex-5-enyl)-1H-indol-3-yl]-3-methyl-5-oxopentanoic acid], for which the half-maximal inhibitory concentration (IC50) was 0.65 ± 0.36 nM. On to `C[C@H](CC(=O)O)CC(=O)c1c(CCCC/C=C\c2ccccc2)n(C)c2ccc(Cl)cc12` [Compound 95], for which the IC50 amounted to 0.62 ± 0.29 nM.

The same assay, now with this note: relative to V230.
Consider `CC(CC(=O)O)CC(=O)c1c(CCCc2ccccc2)n(C)c2ccc(Cl)cc12` (stereo not shown) [Compound 12, 5-(5-chloro-1-methyl-2-(3-phenylpropyl)-1H-indol-3-yl)-3-methyl-5-oxopentanoic acid, reference compound], for which the “reduction of potency compared to V230” value is reported as “about 8 fold”.

Source of the values: patent US10501414B2, “Indole analogs as 5-oxo-ETE receptor antagonists and method of use thereof” (THE ROYAL INSTITUTION FOR THE ADVANCEMENT OF …, priority 2015, dated 2019).
